ChEMBL document CHEMBL1136160, “Design, synthesis and evaluation of novel azasugar-based MMP/ADAM inhibitors” (Bioorg Med Chem Lett, 2003)

How the values were obtained:
Interstitial collagenase [1] = molecular target: T1, Interstitial collagenase (Homo sapiens, UniProt P03956); assay: Inhibition of Recombinant human matrix metalloprotease-1
T1 sequence (P03956 whole entry): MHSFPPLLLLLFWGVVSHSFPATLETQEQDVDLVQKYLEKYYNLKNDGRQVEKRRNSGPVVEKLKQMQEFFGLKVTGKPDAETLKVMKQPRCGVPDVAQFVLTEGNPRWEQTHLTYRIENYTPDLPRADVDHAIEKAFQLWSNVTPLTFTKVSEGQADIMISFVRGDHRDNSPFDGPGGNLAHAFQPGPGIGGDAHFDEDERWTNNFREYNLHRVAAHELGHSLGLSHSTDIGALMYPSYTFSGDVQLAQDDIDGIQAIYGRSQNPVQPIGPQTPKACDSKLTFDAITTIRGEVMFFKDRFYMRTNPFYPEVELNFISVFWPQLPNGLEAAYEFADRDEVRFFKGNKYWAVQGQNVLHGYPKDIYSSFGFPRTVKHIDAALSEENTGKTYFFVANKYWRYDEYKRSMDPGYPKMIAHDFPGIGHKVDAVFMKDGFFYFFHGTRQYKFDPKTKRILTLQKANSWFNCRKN

[2] = molecular target: Matrix metalloproteinase-9 (Homo sapiens, UniProt P14780); assay: Inhibition of recombinant human matrix metalloprotease-9 (gelatinase B)
Sequence of Matrix metalloproteinase-9 (P14780 whole entry, the tested form may be a part): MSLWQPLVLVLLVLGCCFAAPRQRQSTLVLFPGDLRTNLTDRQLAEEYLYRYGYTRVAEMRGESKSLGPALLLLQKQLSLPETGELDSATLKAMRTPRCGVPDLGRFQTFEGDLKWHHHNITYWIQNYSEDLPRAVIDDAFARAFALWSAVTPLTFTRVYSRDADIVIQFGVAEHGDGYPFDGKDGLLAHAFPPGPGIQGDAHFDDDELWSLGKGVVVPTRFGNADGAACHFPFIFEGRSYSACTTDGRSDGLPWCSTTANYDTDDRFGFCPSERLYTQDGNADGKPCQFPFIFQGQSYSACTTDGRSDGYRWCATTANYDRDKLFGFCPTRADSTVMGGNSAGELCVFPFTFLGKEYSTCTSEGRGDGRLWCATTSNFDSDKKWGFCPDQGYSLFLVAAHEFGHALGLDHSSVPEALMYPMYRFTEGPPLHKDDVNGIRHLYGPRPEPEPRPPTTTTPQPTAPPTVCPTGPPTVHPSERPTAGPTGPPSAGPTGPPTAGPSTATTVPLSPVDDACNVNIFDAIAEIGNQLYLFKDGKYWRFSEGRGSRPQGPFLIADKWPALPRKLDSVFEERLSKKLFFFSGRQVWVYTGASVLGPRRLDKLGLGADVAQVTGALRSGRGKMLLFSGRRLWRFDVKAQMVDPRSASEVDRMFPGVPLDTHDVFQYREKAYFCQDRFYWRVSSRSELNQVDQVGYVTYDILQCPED

[3] = molecular target: Disintegrin and metalloproteinase domain-containing protein 17 (Homo sapiens, UniProt P78536); assay: Inhibition of recombinant human tumor necrosis factor-alpha converting enzyme
Sequence of Disintegrin and metalloproteinase domain-containing protein 17 (P78536 whole entry, the tested form may be a part): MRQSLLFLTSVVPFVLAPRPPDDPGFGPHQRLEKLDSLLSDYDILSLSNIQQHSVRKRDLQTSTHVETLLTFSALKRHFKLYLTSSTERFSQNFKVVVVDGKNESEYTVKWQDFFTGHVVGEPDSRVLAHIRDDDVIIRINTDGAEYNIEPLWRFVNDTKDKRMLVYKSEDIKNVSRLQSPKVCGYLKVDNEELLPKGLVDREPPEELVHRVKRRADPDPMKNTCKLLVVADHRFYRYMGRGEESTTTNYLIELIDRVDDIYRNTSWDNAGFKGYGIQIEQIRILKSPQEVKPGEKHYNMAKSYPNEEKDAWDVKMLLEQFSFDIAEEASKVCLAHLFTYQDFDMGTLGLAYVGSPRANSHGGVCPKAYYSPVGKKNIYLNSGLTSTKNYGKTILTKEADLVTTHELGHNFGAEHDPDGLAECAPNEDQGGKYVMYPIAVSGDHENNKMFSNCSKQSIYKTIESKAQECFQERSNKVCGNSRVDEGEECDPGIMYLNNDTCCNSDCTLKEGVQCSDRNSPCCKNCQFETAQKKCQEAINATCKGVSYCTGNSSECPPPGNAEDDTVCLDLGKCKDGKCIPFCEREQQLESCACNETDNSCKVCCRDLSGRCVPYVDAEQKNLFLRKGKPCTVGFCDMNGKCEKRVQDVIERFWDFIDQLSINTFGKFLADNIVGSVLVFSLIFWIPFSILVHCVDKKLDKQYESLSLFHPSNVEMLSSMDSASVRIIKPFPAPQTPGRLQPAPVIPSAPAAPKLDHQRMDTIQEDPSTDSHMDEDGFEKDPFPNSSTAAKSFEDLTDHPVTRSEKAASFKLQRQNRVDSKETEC

Stromelysin-1 = Stromelysin-1 (Homo sapiens, UniProt P08254); assay: Inhibition of recombinant human matrix metalloprotease-3
Sequence of Stromelysin-1 (P08254 whole entry): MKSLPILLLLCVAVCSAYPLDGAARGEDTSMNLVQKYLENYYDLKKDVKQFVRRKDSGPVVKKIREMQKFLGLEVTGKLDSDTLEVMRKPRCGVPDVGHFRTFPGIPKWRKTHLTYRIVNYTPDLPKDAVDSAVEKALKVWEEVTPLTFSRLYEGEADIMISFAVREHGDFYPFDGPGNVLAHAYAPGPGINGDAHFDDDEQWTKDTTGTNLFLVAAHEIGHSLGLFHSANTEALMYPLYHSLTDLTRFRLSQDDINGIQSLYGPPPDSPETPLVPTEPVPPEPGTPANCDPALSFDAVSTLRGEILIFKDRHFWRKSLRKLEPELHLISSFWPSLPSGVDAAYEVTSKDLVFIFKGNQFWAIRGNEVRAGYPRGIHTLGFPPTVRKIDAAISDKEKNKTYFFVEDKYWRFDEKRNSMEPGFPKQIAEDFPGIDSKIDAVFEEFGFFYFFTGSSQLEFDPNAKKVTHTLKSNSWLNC

Interstitial collagenase [4] = molecular target: T1, Interstitial collagenase; assay: Inhibition of recombinant human matrix metalloprotease-1

Compound | Ki (Interstitial collagenase [1]) [nM] | Ki [2] [nM] | Ki [3] [nM] | Ki (Stromelysin-1) [nM] | Ki (Interstitial collagenase [4]) [nM]
COc1ccc(S(=O)(=O)N2C[C@@H]3OC(C)(C)O[C@H]3[C@@H](OC(C)=O)[C@@H]2C(=O)NO)cc1 | 162 | 47 | 21 | 50 | 
COc1ccc(S(=O)(=O)N2C[C@H](O)[C@H]3OC(C)(C)O[C@H]3[C@@H]2C(=O)NO)cc1 |  | 310 | 22 | 44 | 554
COc1ccc(S(=O)(=O)N2C[C@@H]3OC(C)(C)O[C@H]3[C@@H](O)[C@@H]2C(=O)NO)cc1 | 26 | 21 | 40 | 3.7 | 
